Measurements published in paper doi:10.1101/679118v2 (biorxiv, 2019).

System: E. histolytica
Assay: microbe, parasite or virus in culture
Parameters: species or system Entamoeba histolytica HM-1:IMSS trophozoites
Details: Entamoeba histolytica, 24 h, read-out: EC50 E. histolytica

SMILES | EC50 [µM]
COc1cc(NS(C)(=O)=O)ccc1Nc1c2ccccc2nc2ccccc12 [Amsacrine] | 80
NC1CCN(c2c(F)cc3c(=O)c(C(=O)O)cn(C4CC4)c3c2Cl)C1 (centres unmarked) [Clinafloxacin] | 270
C[C@H]([C@H](C)N1CC(=O)NC(=O)C1)N1CC(=O)NC(=O)C1 [ICRF 193] | 15
O=C(O)c1cn(C2CC2)c2cc(N3CCNCC3)c(F)cc2c1=O [ciprofloxacin] | 250
COc1cc([C@@H]2c3cc4c(cc3[C@@H](O[C@@H]3O[C@@H]5CO[C@@H](C)O[C@H]5[C@H](O)[C@H]3O)[C@H]3COC(=O)[C@H]23)OCO4)cc(OC)c1O [etoposide] | 200
